The source of these data is patent US12240862B2, “Inhibitors of peptidylarginine deiminases” (Gilead Sciences, Inc., priority 2020, dated 2025).

In the experiment the target is T1, human PAD4 (Homo sapiens, UniProt Q9UM07).
T1 construct: human PAD4 (NM_012387), A2P663, was PCR amplified; His-SUMO (N, cleaved yes); made in house; host or cells: E. coli BL21(DE3)
T1 sequence (Q9UM07 2-663): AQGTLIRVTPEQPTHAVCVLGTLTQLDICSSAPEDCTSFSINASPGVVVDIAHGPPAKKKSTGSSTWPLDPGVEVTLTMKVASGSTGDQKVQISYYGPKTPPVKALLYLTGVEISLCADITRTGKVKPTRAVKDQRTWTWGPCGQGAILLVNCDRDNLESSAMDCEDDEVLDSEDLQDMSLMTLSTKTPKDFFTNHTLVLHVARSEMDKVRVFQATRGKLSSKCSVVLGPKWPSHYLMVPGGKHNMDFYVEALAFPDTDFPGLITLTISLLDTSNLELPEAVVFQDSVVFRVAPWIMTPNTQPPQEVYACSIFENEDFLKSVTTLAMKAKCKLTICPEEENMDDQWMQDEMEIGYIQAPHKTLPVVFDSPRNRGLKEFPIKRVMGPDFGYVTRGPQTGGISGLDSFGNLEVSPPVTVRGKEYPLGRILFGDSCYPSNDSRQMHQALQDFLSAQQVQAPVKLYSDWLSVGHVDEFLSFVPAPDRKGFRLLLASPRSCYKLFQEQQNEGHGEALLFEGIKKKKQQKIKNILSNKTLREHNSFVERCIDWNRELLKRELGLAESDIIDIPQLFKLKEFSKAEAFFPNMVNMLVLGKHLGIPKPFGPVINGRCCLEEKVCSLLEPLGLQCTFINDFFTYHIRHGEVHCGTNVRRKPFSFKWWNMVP
As to the kind of experiment: In vitro PAD4 BAEE biochemical assay. Particulars: human PAD4, BAEE substrate; 5 nM PAD4, 2 mM calcium chloride, 3 mM BAEE; geometric mean of multiple experiments. A digest of the protocol: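 Ammonia release from BAEE deimination monitored by o-phthalaldehyde amine coupling (1 h, 25 °C) after EDTA stop. Final conditions: 5 nM tag-free recombinant human PAD4 (E. coli), 2 mM CaCl2, 3 mM BAEE, pH 7.6 MOPS with DTT; 30 min compound preincubation, then 2 h reaction at 25 °C.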
`COc1cc(C(=O)N2[C@H]3CC(C)[C@@H]2[C@H](N)C3)cc2nc(-c3cc4ccc(N(C(F)F)S(C)(=O)=O)nc4n3CC3CC3)c(C)n12` (stereo partly drawn) [Example 351, N-[2-[7-[(1R,2R,4S)-2-amino-6-methyl-7-azabicyclo[2.2.1]heptane-7-carbonyl]-5-methoxy-3-methyl-imidazo[1,2-a]pyridin-2-yl]-1-(cyclopropylmethyl)pyrrolo [2,3-b]pyridin-6-yl]-N-(difluoromethyl) methanesulfonamide]: the IC50 (commonly the midpoint of a concentration-inhibition curve) was found to be 6510 nM.
With `COc1cc(C(=O)N2[C@H]3CC[C@@H]2[C@H](N)C3)cc2nc(-c3cc4ccc(N5CCN(c6ccccc6)CCS5(=O)=O)nc4n3CC3CC3)c(C)n12` [Example 444, [(1~{R},2~{R},4~{S})-2-amino-7-azabicyclo [2.2.1]heptan-7-yl]-[2-[1-(cyclopropylmethyl)-6-(1,1-dioxo-5-phenyl-1,2,5-thiadiazepan-2-yl)pyrrolo [2,3-b]pyridin-2-yl]-5-methoxy-3-methylimidazo [1,2-a]pyridin-7-yl] methanone], the IC50 turned out to be 130 nM.
For `COc1cc(C(=O)N2CCC[C@@H](N)C2)cc2nc(-c3cc4ccc(O[C@H](C)C(=O)N(C)C)nc4n3CC3CC3)c(C)n12` [Example 619, (2~{R})-2-[2-[7-[(3~{R})-3-aminopiperidine-1-carbonyl]-5-methoxy-3-methylimidazo [1,2-a]pyridin-2-yl]-1-(cyclopropylmethyl)pyrrolo [2,3-b]pyridin-6-yl]oxy-~{N},~{N}-dimethylpropanamide], the IC50 worked out at 686 nM.
In the case of `COc1cc(C(=O)N2[C@H]3CC[C@@H]2[C@H](N)C3)cc2nc(-c3cc4ccc(N5CCCC(C(C)C)S5(=O)=O)nc4n3CC3CC3)c(C)n12` (stereo partly shown) [Example 452, [(1~{R},2~{R},4~{S})-2-amino-7-azabicyclo [2.2.1]heptan-7-yl]-[2-[1-(cyclopropylmethyl)-6-(1,1-dioxo-6-propan-2-ylthiazinan-2-yl)pyrrolo [2,3-b]pyridin-2-yl]-5-methoxy-3-methylimidazo [1,2-a]pyridin-7-yl]methanone] it was 246 nM.
To `Cc1c(-c2cc3ccc(N(C(F)F)S(C)(=O)=O)nc3n2CC2CC2)nc2cc(C(=O)N3[C@@H]4CC[C@@H](N)[C@H]3CC4)ccn12` [Example 401, ~{N}-[2-[7-[(1~{R},2~{R}, 5~{R})-2-amino-8-azabicyclo[3.2.1]octane-8-carbonyl]-3-methylimidazo [1,2-a]pyridin-2-yl]-1-(cyclopropylmethyl)pyrrolo [2,3-b]pyridin-6-yl]-~{N}-(difluoromethyl) methanesulfonamide] belongs 136 nM; to `COc1cc(C(=O)N2C[C@H](N)CC[C@@H]2C)cc2nc(-c3cc4ccc(C5CC5)nc4n3CC3CC3)c(C)n12` [Example 612, [(2~{S},5~{R})-5-amino-2-methylpiperidin-1-yl]-[2-[6-cyclopropyl-1-(cyclopropylmethyl)pyrrolo [2,3-b]pyridin-2-yl]-5-methoxy-3-methylimidazo[1,2-a]pyridin-7-yl]methanone], 743 nM.
In the case of `Cc1c(-c2cc3ccc(N(C(F)F)S(C)(=O)=O)nc3n2CC2CC2)nc2cc(C(=O)N3C[C@H](N)CC[C@@H]3C)ccn12` [Example 402, ~{N}-[2-[7-[(2~{S},5~{R})-5-amino-2-methylpiperidine-1-carbonyl]-3-methylimidazo[1,2-a]pyridin-2-yl]-1-(cyclopropylmethyl)pyrrolo [2,3-b]pyridin-6-yl]-~{N}-(difluoromethyl) methanesulfonamide] it was 203 nM.
For the compound `COc1cc(C(=O)N2[C@@H]3CC[C@@H](N)[C@H]2CC3)cc2nc(-c3cc4ccc(N(C(F)F)S(C)(=O)=O)nc4n3CC3CC3)c(C3CC3)n12` [Example 382, ~{N}-[2-[7-[(1~{R},2~{R}, 5~{R})-2-amino-8-azabicyclo[3.2.1]octane-8-carbonyl]-3-cyclopropyl-5-methoxyimidazo[1,2-a]pyridin-2-yl]-1-(cyclopropylmethyl)pyrrolo [2,3-b]pyridin-6-yl]-~{N}-(difluoromethyl) methanesulfonamide], the IC50 is 204 nM.
To `COc1cc(C(=O)N2C[C@@H]3CCNCC32)cc2nc(-c3cc4ccc(N(C(F)F)S(C)(=O)=O)nc4n3CC3CC3)c(C)n12` (stereo partly shown) [Example 287, ~{N}-[1-(cyclopropylmethyl)-2-[7-[(6~{S},8~{R})-3,8-diazabicyclo[4.2.0]octane-8-carbonyl]-5-methoxy-3-methylimidazo[1,2-a]pyridin-2-yl]pyrrolo[2,3-b]pyridin-6-yl]-~{N}-(difluoromethyl) methanesulfonamide] belongs 46300 nM.
In the case of `COc1cc(C(=O)N2CC[C@@H](OC)[C@@H](N)C2)cc2nc(-c3cc4ccc([C@@H](C)NC(=O)c5ccccc5)nc4n3CC3CC3)c(C)n12` [Example 114, ~{N}-[(1~{R})-1-[2-[7-[(3~{S},4~{R})-3-amino-4-methoxypiperidine-1-carbonyl]-5-methoxy-3-methylimidazo [1,2-a]pyridin-2-yl]-1-(cyclopropylmethyl)pyrrolo [2,3-b]pyridin-6-yl]ethyl]benzamide] it was 220 nM; in that of `COc1cc(C(=O)N2CCC[C@@H](N)C2)cc2nc(-c3cc4ccc([C@@H](C)NC(=O)OC(C)(C)C)nc4n3CC3CC3)c(C)n12` [Example 257, ~{tert}-butyl~{N}-[(1~{R})-1-[2-[7-[(3~{R})-3-aminopiperidine-1-carbonyl]-5-methoxy-3-methylimidazo[1,2-a]pyridin-2-yl]-1-(cyclopropylmethyl)pyrrolo [2,3-b]pyridin-6-yl]ethyl] carbamate], 208 nM; in that of `COc1cc(C(=O)N2[C@H]3CC[C@@H]2[C@H](N)C3)cc2nc(-c3cc4ccc(C5CCCCN5C(=O)C(C)(C)C)nc4n3CC3CC3)c(C)n12` (stereo partly drawn) [Example 514, 1-(2-(2-(7-((1R,2R,4S)-2-amino-7-azabicyclo[2.2.1]heptane-7-carbonyl)-5-methoxy-3-methylimidazo[1,2-a]pyridin-2-yl)-1-(cyclopropylmethyl)-1H-pyrrolo[2,3-b]pyridin-6-yl)piperidin-1-yl)-2,2-dimethylpropan-1-one], 741 nM.
In the case of `COc1cc(C(=O)N2[C@H]3CC[C@@H]2[C@H](N)C3)cc2nc(-c3cc4ccc(N5[C@@H](C)CCCS5(=O)=O)nc4n3CC3CC3)c(C)n12` [Example 462, ((1R,2R,4S)-2-amino-7-azabicyclo[2.2.1]heptan-7-yl)(2-(1-(cyclopropylmethyl)-6-((S)-3-methyl-1,1-dioxido-1,2-thiazinan-2-yl)-1H-pyrrolo[2,3-b]pyridin-2-yl)-5-methoxy-3-methylimidazo[1,2-a]pyridin-7-yl)methanone] it was 39.7 nM; in that of `COc1cc(C(=O)N2[C@H]3CC[C@@H]2[C@H](N)C3)cc2nc(-c3cc4ccc([C@@H](C)NC(=O)C5CCOCC5)nc4n3CC3CC3)c(C3CC3)n12` [Example 98], 33.2 nM; in that of `COc1cc(C(=O)N[C@@H]2CNCC[C@H]2C)cc2nc(-c3cc4ccc(N(C(F)F)S(C)(=O)=O)nc4n3CC3CC3)c(C)n12` [Example 281, 2-[1-(cyclopropylmethyl)-6-[difluoromethyl (methylsulfonyl)amino]pyrrolo[2,3-b]pyridin-2-yl]-5-methoxy-3-methyl-~{N}-[(3~{S},4~{R})-4-methylpiperidin-3-yl] imidazo[1,2-a]pyridine-7-carboxamide], 16200 nM.
Take `COc1cc(C(=O)N2CC[C@@H]3CCCN[C@@H]3C2)cc2nc(-c3cc4ccc([C@@H](C)NC(=O)C56CC(F)(C5)C6)nc4n3CC3CC3)c(C)n12` [Example 181, ~{N}-[(1~{R})-1-[2-[7-[(4~{a}~{S},8~{a}~{S})-2,3,4,4~{a},5,6,8,8~{a}-octahydro-1~{H}-1,7-naphthyridine-7-carbonyl]-5-methoxy-3-methylimidazo [1,2-a]pyridin-2-yl]-1-(cyclopropylmethyl)pyrrolo [2,3-b]pyridin-6-yl]ethyl]-3-fluorobicyclo[1.1.1]pentane-1-carboxamide]: the IC50 was 10500 nM.
Regarding `COc1cc(C(=O)N2C[C@H](N)[C@@H]3CC[C@H]2C3)cc2nc(-c3cc4ccc([C@@H](C)NC(=O)C56CC(C#N)(C5)C6)nc4n3CC3CC3)c(C3CC3)n12` [Example 632, N-((R)-1-(2-(7-((1S,4R,5R)-4-amino-2-azabicyclo[3.2.1]octane-2-carbonyl)-3-cyclopropyl-5-methoxyimidazo[1,2-a]pyridin-2-yl)-1-(cyclopropylmethyl)-1H-pyrrolo[2,3-b]pyridin-6-yl)ethyl)-3-cyanobicyclo [1.1.1]pentane-1-carboxamide], the IC50 is 140 nM.
Regarding `COc1cc(C(=O)N2[C@H]3CC[C@@H]2[C@H](N)C3)cc2nc(-c3cc4ccc([C@@H](C)NC(=O)C(C)(C)C)nc4n3CC3CC3)c(C)n12` [Example 177, N—((R)-1-(2-(7-((1R,2R,4S)-2-amino-7-azabicyclo[2.2.1]heptane-7-carbonyl)-5-methoxy-3-methylimidazo[1,2-a]pyridin-2-yl)-1-(cyclopropylmethyl)-1H-pyrrolo[2,3-b]pyridin-6-yl)ethyl)pivalamide], the IC50 came to 76.3 nM.
As to `COc1cc(C(=O)N2CC[C@H]3OCCN[C@H]3C2)cc2nc(-c3cc4ccc(N(C(F)F)S(C)(=O)=O)nc4n3CC3CC3)c(C)n12` [Example 383, ~{N}-[2-[7-[(4~{a}~{S},8~{a}~{R})-2,3,4,4~{a},5,7,8,8~{a}-octahydropyrido[4,3-b][1,4]oxazine-6-carbonyl]-5-methoxy-3-methylimidazo[1,2-a]pyridin-2-yl]-1-(cyclopropylmethyl)pyrrolo[2,3-b]pyridin-6-yl]-~{N}-(difluoromethyl) methanesulfonamide], the IC50 was 447 nM.
